Experiments:
mice = assay: Bronchoconstriction (Penh, plethysmography) in mice passively sensitized with TNP-specific Ig LC and challenged intranasally with PSA; assay type: in vivo
Method: Lightly anaesthetized with halothane, mice were passively sensitized by injection with trinitrophenyl (TNP)-specific Ig LC (2 μg in 50 μl of sterile saline) in the retroorbital plexus. Control mice received only 50 μl of sterile saline. Thirty minutes after injection, while being lightly anaesthetized with halothane, all mice received intranasally 50 μl PSA-solution (picrylsulphonic acid dissolved in phosphate-buffered saline).
A part of each of these two groups of mice simultaneously received 200 μg LCBP (the peptide prepared in Example 1) intranasally.
Bronchoconstriction was measured as described by Kraneveld A. D. et al. (ref. 3) and Zuany-Amorim et al. (ref. 6). In short, five minutes before intranasal application of PSA, mice were placed in a plethysmographic chamber (Buxco Electronics Inc., Shanon, Conn.) in order to analyze respiration and to obtain basal line readings. After the intranasal administration, the animals were directly returned to the chamber. The respiratory resistance was measured for a period of 45 minutes. The respiratory resistance is expressed as a dimensionless value calculated by using the formula for the Penh (ref. 4).

RBL-2H3 cells = assay: Binding of FITC-labeled Ig LC to RBL-2H3 mast cell model (FACScan flow cytometer); assay type: cell-based, rat
Method: Basophilic leukemia cells RBL-2H3 (a gift of C. Fewtrell, Ithaca, N.Y., U.S.A.) of the rat, an established model for mast cells, were incubated with 200 ng/10^5 cells Ig LC labeled with fluorescein isothiocyanate. They were incubated for 30 minutes at 4° C. in the presence or absence of 250 μg/ml of the peptide LCBP prepared in preparation 1 (peptide binding to the light chain). Subsequently, they were washed using a phosphate-buffered saline supplemented with 1% v/v fetal calf serum and 0.01% w/v sodium azide. Binding of FITC-labeled Ig LC to RBL-2H3 cells was analyzed using a FACScan flow cytometer.
Curve 4 represents the autofluorescence of unlabeled RBL-2H3 cells.

## Ac-AHWSGHCCL-NH2 (cysteine pairing not given here) [LCBP]
mice; LCBP/PBS/PSA group (200 μg LCBP intranasally, saline instead of Ig LC), time 0 min, basal line reading before the challenge
  Penh (maximum, respiratory resistance): 0.44 ± 0.05
mice; LCBP/PBS/PSA group (200 μg LCBP intranasally, saline instead of Ig LC), time 2.5 min
  Penh (maximum, respiratory resistance): 0.60 ± 0.12
mice; LCBP/PBS/PSA group (200 μg LCBP intranasally, saline instead of Ig LC), time 5 min
  Penh (maximum, respiratory resistance): 0.65 ± 0.23
mice; LCBP/PBS/PSA group (200 μg LCBP intranasally, saline instead of Ig LC), time 7.5 min
  Penh (maximum, respiratory resistance): 0.74 ± 0.12
mice; LCBP/PBS/PSA group (200 μg LCBP intranasally, saline instead of Ig LC), time 10 min
  Penh (maximum, respiratory resistance): 0.53 ± 0.03
mice; LCBP/PBS/PSA group (200 μg LCBP intranasally, saline instead of Ig LC), time 15 min
  Penh (maximum, respiratory resistance): 0.49 ± 0.06
mice; LCBP/PBS/PSA group (200 μg LCBP intranasally, saline instead of Ig LC), time 20 min
  Penh (maximum, respiratory resistance): 0.49 ± 0.03
mice; LcBP/Ig LC/PSA group (200 μg LCBP intranasally, Ig LC-sensitized mice), time 0 min, basal line reading before the challenge
  Penh (maximum, respiratory resistance): 0.43 ± 0.05
mice; LcBP/Ig LC/PSA group (200 μg LCBP intranasally, Ig LC-sensitized mice), time 2.5 min
  Penh (maximum, respiratory resistance): 0.87 ± 0.20
mice; LcBP/Ig LC/PSA group (200 μg LCBP intranasally, Ig LC-sensitized mice), time 5 min
  Penh (maximum, respiratory resistance): 1.12 ± 0.20
mice; LcBP/Ig LC/PSA group (200 μg LCBP intranasally, Ig LC-sensitized mice), time 7.5 min
  Penh (maximum, respiratory resistance): 0.87 ± 0.10
mice; LcBP/Ig LC/PSA group (200 μg LCBP intranasally, Ig LC-sensitized mice), time 10 min
  Penh (maximum, respiratory resistance): 0.87 ± 0.20
mice; LcBP/Ig LC/PSA group (200 μg LCBP intranasally, Ig LC-sensitized mice), time 15 min
  Penh (maximum, respiratory resistance): 0.85 ± 0.01
mice; LcBP/Ig LC/PSA group (200 μg LCBP intranasally, Ig LC-sensitized mice), time 20 min
  Penh (maximum, respiratory resistance): 0.52 ± 0.05
mice; intranasal LCBP during passive sensitization (i.v.) with Ig LC
  Inhibition of bronchoconstriction (elevation of Penh) induced by antigen (PSA): completely inhibit
RBL-2H3 cells; LCBP 0.25 mg/ml, FIG. 1 curve 2
  Inhibition of Ig LC binding to mast cells: can be inhibited
RBL-2H3 cells; LCBP 0.50 mg/ml, FIG. 1 curve 3
  Inhibition of Ig LC binding to mast cells: can be inhibited
